# Results from patent US7449567B2, “Isolation and identification of mouse and human transcription control elements associated with cytochrome expression” (Xenogen Corporation, priority 2001, dated 2008).
# Like-named read-outs stand apart in the source and are kept apart here.
# How the values were obtained:
# [1] = tested on: CYP3A4-luc transgene (13 kb human CYP3A4 promoter); settings: mouse, in vivo
# Protocol: General methods for evaluating the animal lines were as follows. Tg founders were bred to wild-type FvB mice to generate F1 mice. A female transgenic founder was bred to a wild-type FvB male and a male transgenic founder was bred to a few wild-type FvB females.
# A Luciferin stock solution of 30 mg/ml was prepared in sterile PBS.
# The route of administration for the drugs and for luciferin was IP. The dose of reagent administration of luciferin substrate and drugs was as follows. Dose of luciferin: 150 mg/kg of a 30 mg/ml luciferin stock was injected IP five minutes before imaging in the IVIS™ (Xenogen Corporation, Alameda, Calif.) system. […] DMSO was administrated as a vehicle control.
# Following luciferin administration the animals were anesthetized using gas anesthesia (Isoflurane) and placed in an IVIS™ box (Xenogen Corporation, Alameda, Calif.) for imaging. All animals were imaged before and after chemical administration, and imaged at high resolution (binning 2) for 10 seconds or 1 minute, for males and females, respectively.
# NT is the non-treated control. Before each imaging session, mice were injected i.p. with 150 mg/kg luciferin. […] Measurements on each mouse were performed as described above. […] Measurements on each mouse were performed as described above.
# hPXR = biological target: T1, hPXR (Homo sapiens, UniProt O75469); settings: cited from earlier work
# T1 sequence (O75469 1-434): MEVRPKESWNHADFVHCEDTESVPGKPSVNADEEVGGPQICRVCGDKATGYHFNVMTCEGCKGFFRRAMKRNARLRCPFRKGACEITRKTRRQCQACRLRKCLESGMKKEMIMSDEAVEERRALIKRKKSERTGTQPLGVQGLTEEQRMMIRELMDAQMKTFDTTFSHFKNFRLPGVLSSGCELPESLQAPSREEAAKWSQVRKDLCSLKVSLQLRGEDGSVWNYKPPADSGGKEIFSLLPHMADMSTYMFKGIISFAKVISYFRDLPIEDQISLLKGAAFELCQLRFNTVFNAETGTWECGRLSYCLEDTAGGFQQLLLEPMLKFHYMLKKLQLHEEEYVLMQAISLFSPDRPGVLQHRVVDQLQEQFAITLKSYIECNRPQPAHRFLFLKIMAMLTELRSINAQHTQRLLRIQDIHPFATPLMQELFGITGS
# [2] = cell culture, Xie et al. 2000, Goodwin et al. 1999
SMILES,"induction of the transgene CYP3A4-luc ([1]; FVB (CYP3A4-luc transgenic, line #82))",induction of CYP3A4 expression via hPXR (hPXR; [2]),induction of the transgene CYP3A4-luc [1],induction of CYP3A4 expression via hPXR (hPXR)
"Clc1ccccc1C(c1ccccc1)(c1ccccc1)n1ccnc1 [Clotrim, clotrimazole]",induced the transgene CYP3A4-luc better than other three compounds,relatively better inducers of CYP3A4 expression,–,–
"CC(=O)[C@H]1[C@H](C#N)C[C@H]2[C@@H]3CC=C4C[C@@H](O)CC[C@]4(C)[C@H]3CC[C@@]21C [PCN, 5-pregnene-3b-OL-20-ONE-16a-Carbonitrile]",–,weaker inducers,induced the transgene CYP3A4-luc better than other three compounds,–
"CCC1(c2ccccc2)C(=O)NC(=O)NC1=O [Phenob, phenobarbitol]",–,–,induced the transgene to various degrees,relatively better inducers of CYP3A4 expression
"CC(=O)[C@H]1CC[C@H]2[C@@H]3CC=C4C[C@@H](O)CC[C@]4(C)[C@H]3CC[C@]12C [Preg, pregnenolone]",–,–,all drugs except for Preg induced the transgene,weaker inducers
